In PMC3592886, “Utilization of Quantitative In Vivo Pharmacology Approaches to Assess Combination Effects of Everolimus and Irinotecan in Mouse Xenograft Models of Colorectal Cancer” (PLoS ONE, 2013):
Where two headings read alike, the source gives them in different places. Marks after values point to notes of the source that are not given here.

How the values were obtained:
[1] = Human, cited from earlier work
[2] = Pharmacokinetic study of everolimus in mice bearing HT29 tumors (plasma and tumor, LC/MS/MS); type: in vivo; conditions: for Cmax / Tmax / AUC(0-t) / CL/F / Vd/F / half-life: nude; for CL/F: read-out: CLss/F (converted); for Vd/F: read-out: Vz/F; for half-life: read-out: t½ (converted)
Description: A pharmacokinetic study of everolimus was conducted in mice bearing HT29 tumors (average volume ∼300 mm^3). Mice were treated with either 2.5 or 10 mg/kg everolimus daily for 7 days by oral gavage. Three mice per dose level were sacrificed by cardiac stick exsanguination at 30 minutes, 2, 4, 6 and 24 hours following drug administration on day 7. Plasma and tumor tissue were snap-frozen in liquid N2 and stored at −70°C until analyzed.
Everolimus was measured in plasma and tumors by LC/MS/MS assay. Analytical standards, quality control (QC) and unknowns were all prepared by adding 200 µl of unknown or spiked blank plasma or tumor homogenate (100 mg/ml in water) samples to a 1.5 ml microcentrifuge tube. Samples were extracted by the addition of 1 ml methyl tert-butyl ether (MTBE) followed by 10 min vortex mixing. Samples were centrifuged at 13,000 RPM for 10 min and the supernatant collected and 900 µl transferred to a clean glass test tube. Samples were evaporated to dryness using a rotary evaporator followed by re-suspension in 100 µl of 50% acetonitrile/50% 10 mM ammonium acetate and transferred to auto-sampler vials for analysis. Mass spectra for extracted samples was obtained on a MDS Sciex 3200 Q-TRAP triple quadrupole mass spectrometer (Applied Biosystems, Inc., Foster City, CA) with a turbo ionspray source interfaced to an Agilent 1200 Series Binary Pump SL HPLC system (Santa Clara, CA).The lower and upper limits of quantitation for the assay were 1 and 5000 nM, respectively. Accuracy and precision (% RSD) based on analysis of standards and QC samples for this assay were 90.7% and 5.5% for plasma and 93.0% and 4.2% for tumor. Additional details may be found in Supplement S1 (section SA.1.).
Plasma and tumor pharmacokinetic parameters were calculated by noncompartmental analysis with WinNonlin. Everolimus plasma data was fit to a two-compartment model with first-order absorption and simulations of plasma concentrations at a 5 mg/kg dose of everolimus were performed by SAAM II version 2.1 (The Epsilon Group, Charlottesville, VA/University of Washington).

[3] = everolimus, humans; cited from earlier work
HT29 cells [4] = assay: Sulforhodamine B (SRB) anti-proliferation assay, HT29; type: cell-based
Description: (§1) Cytoxic effects were determined using the sulforhodamine B (SRB) assay. Briefly, 5000 viable cells were plated into 96-well plates and incubated overnight prior to exposure with different concentrations of drugs. Cells were exposed to increasing concentrations of everolimus (0–200 nM), SN38 (0–8 nM), and combinations of the two. Following a 72 hour incubation, media was removed and cells were fixed with cold 10% trichloroacetic acid for 30 minutes at 4° C. Cells were washed with water and stained with 0.4% SRB for 30 minutes at room temperature. Cells were washed again with 1% acetic acid and stain was solubilized with 10 mM tris at room temperature and read at an OD of 565 nm. […] The resulting Combination Index (CI) was used as a quantitative measure of the degree of interaction between different drugs. A CI value equal to 1 denotes additivity; CI greater than 1, antagonism; CI less than 1, synergism.

HT29 cells [5] = assay: In vitro metabolomics, HT29 cells; type: cell-based; conditions: 24 and 96 hours exposure to 30nM RAD001
Description: Metabolomics was performed in vitro on HCT116
(KRAS mt; PIK3CA mt) and HT29 (BRAF mt;
PIK3CA mt) cells after 0 (control), 24 and 96 hours exposure to 30nM RAD001. In both cell lines after 24 and 96 hours glucose uptake was reduced showing a decrease in proliferation. […]

HCT116 cells = assay: Sulforhodamine B (SRB) anti-proliferation assay, HCT116; type: cell-based
Description: as §1

[6] = test system: VEGF and bFGF stimulated endothelial cells (HUVECs); design: method as in PMID 19223496; conditions: read-out: IC50, anti-proliferative activity; cited from earlier work
[7] = 10 mg daily oral, steady-state, ref 25
[8] = 2.5 mg/kg daily oral for 7 days, Mouse, plasma, steady-state
[9] = 10 mg/kg daily oral for 7 days, Mouse, plasma, steady-state
[10] = mouse, po, HT29 tumor, 2.5 mg/kg, mice
[11] = mouse, po, HT29 tumor, 10 mg/kg, mice
[12] = mouse, po, plasma, 2.5 mg/kg, mice, non-compartmental analysis
[13] = mouse, po, plasma, 10 mg/kg, mice, non-compartmental analysis

Structure (SMILES): CO[C@H]1C[C@@H]2CC[C@@H](C)[C@@](O)(O2)C(=O)C(=O)N2CCCC[C@H]2C(=O)O[C@H]([C@H](C)C[C@@H]2CC[C@@H](OCCO)[C@H](OC)C2)CC(=O)[C@H](C)/C=C(\C)[C@@H](O)[C@@H](OC)C(=O)[C@H](C)C[C@H](C)/C=C/C=C/C=C/1C [Everolimus, 40-O-(2-hydroxyethyl)-rapamycin]
- AUC0→t ([1]; 5 mg daily oral, ref 25): 238 ± 77 ng·h/mL
- Cmin ([1]; 5 mg daily oral, ref 25): ^†5.4 ng/mL
- AUC0→t ([1]; 5 mg daily oral, ref 26): 543 ± 189 ng·h/mL
- Cmin ([1]; 5 mg daily oral, steady-state, estimated from graph in reference): ∼12–14^bd ng/mL
- Cmax ([1]; 5 mg daily oral, steady-state): 32±9 ^b ng/mL
- AUC0→t ([1]; 10 mg daily oral, ref 25): 514 ± 231 ng·h/mL
- AUC0→t ([1]; 10 mg daily oral, ref 26): 711 ± 113 ng·h/mL
- Cmin ([1]; 10 mg daily oral, steady-state, estimated from graph in reference): ∼20^bd ng/mL
- Cmax [1, 7]: 61±17 ^b ng/mL
- Cmin [1, 7]: 13.3 ^b ng/mL
- Cmax ([1]; 10 mg daily oral, steady-state, ref 26): 66±1.4 ^b ng/mL
- Cmin [2, 8]: 12±6 ^b ng/mL
- Cmin [2, 9]: 59±5 ^b ng/mL
- AUCss,free (steady-state free plasma exposure) ([2]; 10 mg/kg in mice, 99% plasma protein binding used): 116 ng·h/mL
- Cmax [2, 10]: 52 nM
- Tmax [2, 10]: 30 min
- AUC(0-t) ([2]; mouse, po, HT29 tumor, 2.5 mg/kg, mice, read-out: AUC0→24): 0.742 µM·h
- Cmax [2, 11]: 250 nM
- Tmax [2, 11]: 240 min
- AUC(0-t) ([2]; mouse, po, HT29 tumor, 10 mg/kg, mice, read-out: AUC0→24): 3.93 µM·h
- Cmax [2, 12]: 365 nM
- Tmax [2, 12]: 30 min
- AUC(0-t) ([2]; mouse, po, plasma, 2.5 mg/kg, mice, non-compartmental analysis, read-out: AUC0→24): 2 µM·h
- CL/F [2, 12]: 20 mL/min/kg
- Vd/F [2, 12]: 10.8 L/kg
- Cmax [2, 13]: 1760 nM
- Tmax [2, 13]: 30 min
- AUC(0-t) ([2]; mouse, po, plasma, 10 mg/kg, mice, non-compartmental analysis, read-out: AUC0→24): 12.1 µM·h
- CL/F [2, 13]: 13.8 mL/min/kg
- Vd/F [2, 13]: 6 L/kg
- Cmax [2, 8]: 350 ± 230 ng/mL
- AUC(0-t) ([2]; 2.5 mg/kg daily oral for 7 days, Mouse, plasma, read-out: AUC0→t): 1920 ng·h/mL
- half-life ([2]; 2.5 mg/kg daily oral for 7 days, Mouse, plasma): 360 min
- Cmax [2, 9]: 1680 ± 277 ng/mL
- AUC(0-t) ([2]; 10 mg/kg daily oral for 7 days, Mouse, plasma, read-out: AUC0→t): 11600 ng·h/mL
- half-life ([2]; 10 mg/kg daily oral for 7 days, Mouse, plasma): 300 min
- plasma protein binding [3]: 75%
- %Growth Inhibition (HT29 cells [4]; HT29, RAD (20 nM), SN38 (4 nM) or the combination of the two, Figure 2): 74%
- IC50 (HT29 cells [4]; Homo sapiens, HT-29, HT29 cells): 1.2 nM
- glucose uptake (HT29 cells [5]): reduced
- %Growth Inhibition (HCT116 cells; HCT116, RAD (20 nM), SN38 (4 nM) or the combination of the two, Figure 2): 49%
- IC50 (HCT116 cells; Homo sapiens, HCT-116, HCT116 cells): 25 nM
- IC50 [6]: 0.1 to 0.8 nM
